The text below walks through data of patent US11952349B2, “Anti-cancer nuclear hormone receptor-targeting compounds” (Nuvation Bio Inc., priority 2019, dated 2024).

One assay has as its target Human recombinant PARP2 (Homo sapiens, UniProt Q9UGN5). As to the kind of experiment: RBC HotSpot PARP2 assay (radioisotope-based filter binding). Particulars: Table 9; read-out: PARP2. Format: biochemical. How it is done: The following methods are for evaluating the in vitro biology properties of the test articles. • a. RBC HotSpot Poly(ADP-ribose) Polymerases 1 (PARP1) and Poly(ADP-ribose) Polymerases 2 (PARP2) Assays: The assay was conducted at Reaction Biology Corporation (RBC; Malvern, PA). The assay principle is radioisotope-based filter binding assay where incorporation of radioisotope-labeled NAD^+ into the substrate captured on filter is detected after washout free NAD^+. Data were analyzed using Excel and GraphPad Prism software for IC50 curve fits. Each assay was conducted with PJ34 as a positive control. PARP1 assay: Human recombinant PARP1 at a final concentration of 2.5 nM was combined with histone H4 (20 μM) and test articles at various concentrations in reaction buffer (50 mM Tris-HCL, pH 8.0, 50 mM NaCl, 10 mM MgCl2, 1 mM DTT, 1% DMSO, and 20 μg/mL activated DNA). The solution was inoculated for 20 min at room temperature and the reaction initiated by adding [adenylate-^32P]-Nicotinamide Adenine Dinucleotide, ^32P-NAD^+ at a final concentration of 10 μM. After incubation for 2 hrs at room temperature, the reaction mixture was filtered and washed with 0.75% phosphoric acid for radioactivity detection. • ii. PARP2 assay: Human recombinant PARP2 at a final concentration of 2.5 nM was combined with histone H3 (20 μM) and test articles at various concentrations in reaction buffer (50 mM Tris-HCL, pH 8.0, 50 mM NaCl, 10 mM MgCl2, 1 mM DTT, 1% DMSO, and 20 μg/mL activated DNA). The solution was inoculated for 20 min at room temperature and the reaction was initiated by adding [adenylate-^32P]-Nicotinamide Adenine Dinucleotide, ^32P-NAD^+ at a final concentration of 10 μM. After incubation for 2 hrs at room temperature, the reaction mixture was filtered and washed with 0.75% phosphoric acid for radioactivity detection. • b. AR binding assay: AR in LNCaP cytosol was used for determining the binding affinity of test articles and the reference compound—progesterone (Sigma, Cat: E2785, St. Louis, MO). IC50 s were determined using 8 concentrations/compound. Cytosol is plated at 200 μg/well (100 μL) into a 96-well conical polypropylene plate (Agilent, Cat: 5042-1385, Santa Clara, CA) and mixed with 3 μL of test compound. After adding 100 μL of ^3H-methyltrienolone (PerkinElmer, Cat: NET590250UC, San Jose, CA), the plate was sealed and shaken at 300 rpm at 4° C. for 24 hours. Post incubation, 100 μL of radioligand adsorption buffer containing 10 mM Tris-HCl, pH 7.4; 1.5 mM EDTA; 1 mM DTT; 0.25% charcoal; 0.0025% dextran was added to individual wells. Plate was shaken for 15 min at 4° C. followed by centrifugation at 3000 rpm for 30 min at 4° C. 150 μL of supernatant is transferred into scint-tube (PerkinElmer, Cat: 6000192) and mixed with 2 mL of Ultima Gold Cocktail (PerkinElmer, Cat: 6013329). Radioactivity is counted using a TriCarb 2910 TR scintillation counter (PerkinElmer). Inhibition of the radioactivity by test articles was calculated using the equation below: % Inhibition=(1−(Assay well−Average_LC)/(Average_HC−Average_LC))×100%. • IC50 values (Table 6) were calculated and graphed using the model “log(inhibitor) vs. response—Variable slope” included in GraphPad Prism 5 (San Diego, CA). The Ki values were further calculated using the equation below where [L] is the radioligand concentration (1 nM) used in this study. Kd value was 0.332 nM. Ki=IC50/(1+[L]/Kd) • c. AR transactivation: Human AR cloned into a CMV vector backbone is used for the transactivation study. HEK-293 cells are plated at 80,000 cells per well of a 24 well plate in DME+5% csFBS. Twenty four hours later, the cells are transfected using Lipofectamine (Invitrogen, Carlsbad, CA) with 0.25 μg GRE-LUC, 0.01 μg CMV-LUC (renilla luciferase) and 25 ng of the AR in OPTIMEM medium. The cells are treated 24 hrs after transfection with various ligands (10^−12 to 10^−5 M final concentrations) and luciferase assay performed 48 hours after transfection. […]

The target of assay [1] is T1, Progesterone Receptor (PR)-LBD (Homo sapiens, UniProt P06401).
T1 sequence (P06401 679-913 limits assumed): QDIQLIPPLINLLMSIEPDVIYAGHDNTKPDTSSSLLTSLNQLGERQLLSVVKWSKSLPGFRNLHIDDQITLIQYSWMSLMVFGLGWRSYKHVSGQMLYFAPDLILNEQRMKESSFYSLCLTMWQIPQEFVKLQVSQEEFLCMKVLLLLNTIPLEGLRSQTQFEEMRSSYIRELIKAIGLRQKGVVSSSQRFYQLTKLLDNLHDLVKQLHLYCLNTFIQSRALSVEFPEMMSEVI
Put plainly: PR coactivator antagonist assay. Format: biochemical. The settings on record: Table 8; 10 nM progesterone; read-out: PR antagonism. How it is done:
PR coactivator antagonist assay: Test compound (Top dose 10 μM, 4 fold serial dilution, 8 point dose response) and/or vehicle was incubated with the 2.5 nM Progesterone Receptor (PR)-LBD and coactivator peptide for 30 minutes at RT. Determination of the amount of complex formed is read spectrofluorimetrically (excitation: 337 nm, emission: 520/490 nm). Test compound-induced inhibition of 10 nM progesterone-induced fluorescence response by 50 percent or more (>50%) indicates receptor antagonist activity.

Sequence of Human recombinant PARP2 (Q9UGN5 whole entry): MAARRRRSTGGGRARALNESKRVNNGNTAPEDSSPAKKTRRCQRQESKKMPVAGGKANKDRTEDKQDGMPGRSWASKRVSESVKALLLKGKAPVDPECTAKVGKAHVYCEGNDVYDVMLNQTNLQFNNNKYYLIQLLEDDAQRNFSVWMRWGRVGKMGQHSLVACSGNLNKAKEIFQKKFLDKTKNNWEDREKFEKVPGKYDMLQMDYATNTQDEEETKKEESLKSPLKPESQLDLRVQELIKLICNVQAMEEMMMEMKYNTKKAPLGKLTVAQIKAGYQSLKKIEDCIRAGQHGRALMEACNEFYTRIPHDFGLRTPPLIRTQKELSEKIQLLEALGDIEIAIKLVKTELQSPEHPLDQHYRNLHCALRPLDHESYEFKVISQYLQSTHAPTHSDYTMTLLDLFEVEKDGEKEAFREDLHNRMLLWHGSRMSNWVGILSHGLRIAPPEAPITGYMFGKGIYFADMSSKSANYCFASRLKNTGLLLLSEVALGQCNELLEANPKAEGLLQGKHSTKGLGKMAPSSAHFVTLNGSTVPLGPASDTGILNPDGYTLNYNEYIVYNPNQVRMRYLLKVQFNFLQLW

Regarding `CC#C[C@]1(O)CC[C@H]2[C@@H]3CCC4=CC(=O)CCC4=C3[C@@H](c3ccc(N(C)CCCCCC(=O)NCCOCCOCC(=O)N4CCN(C(=O)c5cc(Cc6n[nH]c(=O)c7ccccc67)ccc5F)CC4)cc3)C[C@@]21C` [Compound 1429, N-(2-(2-(2-(4-(2-fluoro-5-((4-oxo-3,4-dihydrophthalazin-1-yl)methyl)benzoyl)piperazin-1-yl)-2-oxoethoxy)ethoxy)ethyl)-6-((4-((8S,11R,13S,14S,17S)-17-hydroxy-13-methyl-3-oxo-17-(prop-1-ynyl)-2,3,6,7,8,11,12,13,14,15,16,17-dodecahydro-1H-cyclopenta[a]phenanthren-11-yl)phenyl)(methyl)amino)hexanamide], the IC50 at Human recombinant PARP2 was under 1 nM; in assay [1] it was under 10 nM.
